Source: publication PMC7038073, “Substituted Piperazines as Novel Potential Radioprotective Agents” (Molecules, 2020)
Several values for one entry are separate records, joined by “and”; a condition that tells them apart may be missing. Equal entries are not always repeated. Structures can show the parent of a compound that is named as a salt.

What was measured:
[1] = WST-1 cytotoxicity test, HeLa; assay type: cell-based; conditions: human, HeLa cells, 48 h, WST-1, mean ± SD of three experiments, read-out: relative viability (%) compared to untreated control
Protocol: (§1) In this study, the cytotoxic effects of nine new compounds (2, 3, 4, 5, 6, 7, 8, 9, 10) were tested on 10 human cell lines (nine cancer and one non-cancer cell line). The cell lines were treated with each compound at concentrations of 10 µM and 100 µM for 48 h. The proliferation capacity of the treated cells was determined by WST-1 test and compared against the proliferation rate of the untreated control cells (100%).
(§2) The cell lines Jurkat, MOLT-4, A2780, A549, HT-29, PANC-1, HeLa, MCF-7, SAOS-2, and MRC-5 (all purchased from Sigma Aldrich, Czech Republic) were included in this study. All cell lines were maintained according to the provider’s guidelines, and plated and treated in 96-well plates (500 to 30 × 10^3 cells per well). The tested compounds 2, 3, 4, 5, 6, 7, 8, 9, and 10 were dissolved in 0.1% DMSO and kept in 10 mM stock solutions. Before use, the stock solution was diluted in culture media at ratios of 1:100 and 1:1000. The studied cell lines were treated with the compounds 2, 3, 4, 5, 6, 7, 8, 9, and 10 at concentrations of 10 and 100 µM for 48 h. Control cells were tested in culture media with and without DMSO (0.1%). The cells were also treated with 1 µM doxorubicin as a cytotoxicity control.
(§3) The WST-1 (2-(4-iodophenyl)-3-(4-nitrophenyl)-5-(2,4-disulfophenyl)-2H-tetrazolium, monosodium salt) test (Roche, Mannheim, Germany) was used according to the manufacturer’s protocol to determine cell viability in all 10 cell lines 48 h after treatment with the tested compounds. The cells were analyzed in a Tecan Infinite M200 spectrometer (Tecan Group, Männedorf, Switzerland) at 440 nm.

[2] = WST-1 cytotoxicity test, A2780; assay type: cell-based; conditions: human, A2780 cells, 48 h, WST-1, mean ± SD of three experiments, read-out: relative viability (%) compared to untreated control; for viability at 48 h, 10 µM: A2780, 10 µM; for viability at 48 h, 100 µM: A2780, 100 µM
Protocol: as §1, §2, §3

[3] = WST-1 cytotoxicity test, MOLT-4; assay type: cell-based; conditions: human, MOLT-4 cells, 48 h, WST-1, mean ± SD of three experiments, read-out: relative viability (%) compared to untreated control; for viability at 48 h, 10 µM: MOLT-4, 10 µM; for viability at 48 h, 100 µM: MOLT-4, 100 µM
Protocol: as §1, §2, §3

BALB/c mice = assay: Safe use evaluation in vivo (MTD, symptoms, blood biochemistry, histopathology); design: key to piloerection / ataxia / prostration / tremor / excitation / saber-like tail / stooping / hyper/hypoventilation / drop of eyelids / lacrimation / convulsion: + (mild); ++ (moderate); +++ (severe); conditions: animals 1 and 2; for ALT / AST / Amylase / Glucose / Urea / ALP / Creatinine: plasma 48 h after MTD i.p.
Source text: Mild to moderate signs of intoxication could be observed once the MTD (maximum tolerated dose) was reached. In vivo, MTD is described as the highest dose of a given compound that can be administered before showing signs of toxicity (based on the same dose regimen or series) and whose excess would be expected to be fatal, yielding unreliable results. Therefore, a staged approach (including core and intermediate dose levels) has become a suitable strategy in this regard.
The symptoms described in Tables S1 (in Supplementary Materials) and S2 (in Supplementary Materials) diminished spontaneously within 2 h. After observing these symptoms, MTD thresholds were set at 100, 200, 100, 200, 2000, and 650 mg/kg for compounds 4, 5, 6, 7, 8, and 10, respectively. Animals receiving MTD were further examined by necropsy 48 h after administration. Plasma (reflecting biochemical changes in blood), intestine with mesentery (site of administration), and liver and kidney (elimination organs) were collected to evaluate the toxic potential of the tested compounds. For evaluation of the impact of the compounds on organ function, we performed blood biochemistry test 48 h after administration. The test focused on seven important indicators: glucose and amylase for normal function of pancreas, alanine aminotransferase (ALT), aspartate aminotransferase (AST), and alkaline phosphatase (ALP) for the normal function of liver, and urea and creatinine for the normal function of kidneys. […] According to Thoolen et al., focal necrosis can be occasionally seen in untreated rodents and therefore is not pathognomonic of hepatotoxicity, which is consistent with our findings.
Both male and female BALB/c mice (Velaz s r.o., Prague, Czech Republic) with an average weight of 21 ± 0.8 g and 21 ± 0.8 g, respectively, were selected for the safe use evaluation in vivo. The mice were housed in environmentally controlled breeding units (Faculty of Military Health Sciences vivarium; temperature 21 ± 1 °C, 12/12 h light/dark cycle) with access to food (Cerea corp., Pardubice, Czech Republic) and water ad libitum. The acclimatization period of the mice was at least 10 days before each experiment. All experimental procedures and protocols were reviewed and approved by the Ethics Committee of the Faculty of Military Health Sciences in Hradec Kralove, University of Defence in Brno. Compounds 2, 3, 4, 5, 6, 7, 8, 9, and 10 were dissolved in physiological saline solution (B. Braun Melsungen AG, Melsungen, Germany) and injected intraperitoneally (i.p.) into the corresponding mouse groups, which were composed of two males and two females. Several doses were administered to determine the maximum tolerated dose (MTD), which was assessed by close observation for signs of toxicity within the first two hours after administration of the compounds, and then regularly over the following 48 h. The observed symptoms were registered according to the laboratory Animal Science Association UK guidelines (for a detailed description, see [36]. After 48 h, the surviving animals were euthanized with CO2 and evaluated by basic macroscopic necropsy. Venous blood was collected into heparinized tubes (Scanlab Systems, Prague, Czech Republic) and the plasma was separated in a U-320R centrifuge (Boeco, Hamburg, Germany) to further evaluate the toxic potential of the tested compounds. The concentrations of glucose, urea, and creatinine and the levels of alanine aminotransferase (ALT), aspartate aminotransferase (AST), alkaline phosphatase (ALP), and amylase were evaluated in a qualified biochemical laboratory of the University Hospital Hradec Kralove (Hradec Kralove, Czech Republic). Additionally, intestine, liver, and kidney samples were collected for histopathologic examination. […]

A549 cells = assay: MTT assay, IC50 and MTC; conditions: for IC50 fold higher than that for compound 2 / MTC (maximum tolerated concentration): A549 cells, MTT; for MTC (maximum tolerated concentration): 24 h of treatment; for IC50: Homo sapiens, A549, 24 h, read-out: IC50 ± SEM
Protocol: In further experiments, MTT (3-(4,5-di-methylthiazol-2-yl)-2,5-diphenyltetrazolium bromide) assay was employed to evaluate the toxicological indexes of the newly synthesized compounds, including IC50 (half-maximal inhibitory concentration) and MTC (maximum tolerated concentration).
IC50 and MTC were determined through MTT assays. The MTT assay was performed according to [35]. In brief, the A549 cell line was plated in 96-well plates (100 µL, 9 × 10^3 cells per well) and incubated overnight. The tested compounds were prepared in phosphate buffer saline (PBS; Sigma–Aldrich) and serially diluted in DMEM (Dulbecco’s Modified Eagle Medium). An untreated control was included as a viability standard in each plate. After 24 h of treatment, the viability of A549 cells was measured at 570 nm. All experiments were performed in triplicate. The GraphPad Prism statistics software v5.04 (GraphPad Software Inc., San Diego, CA, USA) was used to calculate the IC50 values for parameter nonlinear regression. Values are expressed as mean ± SEM.

COc1ccc(NCCCN2CCN(CCO)CC2)cc1.Cl.Cl.Cl [Compound 7, 2-(4-(3-((4-methoxyphenyl)amino)propyl)piperazin-1-yl)ethanol trihydrochloride]
viability at 48 h, 10 µM [1]: 96 ± 8%
viability at 48 h, 100 µM [1]: 132 ± 3%
viability at 48 h, 10 µM [2]: 94 ± 3%
viability at 48 h, 100 µM [2]: 91 ± 2%
viability at 48 h, 10 µM [3]: 93 ± 3%
viability at 48 h, 100 µM [3]: 99 ± 3%
ALT (BALB/c mice; female BALB/c mice): 22 U/L and 33 U/L
AST (BALB/c mice; female BALB/c mice): 52 U/L and 71 U/L
Amylase (BALB/c mice; female BALB/c mice): 2501 U/L and 1496 U/L
Glucose (BALB/c mice; female BALB/c mice): 241 mg/dL and 178 mg/dL
Urea (BALB/c mice; female BALB/c mice): 40 mg/dL
drop of eyelids (BALB/c mice; female mice, at MTD i.p.): +
hyper/hypoventilation (BALB/c mice; female mice, at MTD i.p.): ++
prostration (BALB/c mice; female mice, at MTD i.p.): +
tremor (BALB/c mice; female mice, at MTD i.p.): ++
ALP (BALB/c mice; male BALB/c mice): 78 U/L and 55 U/L
ALT (BALB/c mice; male BALB/c mice): 19 U/L and 29 U/L
AST (BALB/c mice; male BALB/c mice): 48 U/L and 66 U/L
Amylase (BALB/c mice; male BALB/c mice): 2272 U/L and 1858 U/L
Creatinine (BALB/c mice; male BALB/c mice): 23 µg/dL and 34 µg/dL
Glucose (BALB/c mice; male BALB/c mice): 244 mg/dL and 194 mg/dL
Urea (BALB/c mice; male BALB/c mice): 35 mg/dL and 38 mg/dL
drop of eyelids (BALB/c mice; male mice, at MTD i.p.): +
hyper/hypoventilation (BALB/c mice; male mice, at MTD i.p.): ++
prostration (BALB/c mice; male mice, at MTD i.p.): ++
tremor (BALB/c mice; male mice, at MTD i.p.): ++
weight at 24 h (%) (BALB/c mice; male mice, at MTD i.p.): -0.3% and -1.5%
weight at 48 h (%) (BALB/c mice; male mice, at MTD i.p.): 0.0% and -3.7%
IC50 fold higher than that for compound 2 (A549 cells): 63.8 fold
MTC (maximum tolerated concentration) (A549 cells): 0.39 mM
IC50 (A549 cells): 2550 ± 210 µM

Cl.Cl.Cl.OCCN1CCN(CCCNc2ccccc2)CC1 [Compound 5, 2-(4-(3-(phenylamino)propyl)piperazin-1-yl)ethanol trihydrochloride]
viability at 48 h, 10 µM [1]: 100 ± 4%
viability at 48 h, 100 µM [1]: 116 ± 10%
viability at 48 h, 10 µM [2]: 93 ± 5%
viability at 48 h, 100 µM [2]: 105 ± 8%
viability at 48 h, 10 µM [3]: 93 ± 9%
viability at 48 h, 100 µM [3]: 104 ± 7%
ALP (BALB/c mice; female BALB/c mice): 88 U/L and 80 U/L
ALT (BALB/c mice; female BALB/c mice): 29 U/L and 22 U/L
AST (BALB/c mice; female BALB/c mice): 65 U/L and 44 U/L
Amylase (BALB/c mice; female BALB/c mice): 2531 U/L and 2489 U/L
Glucose (BALB/c mice; female BALB/c mice): 187 mg/dL and 192 mg/dL
Urea (BALB/c mice; female BALB/c mice): 65 mg/dL and 58 mg/dL
ataxia (BALB/c mice; female mice, at MTD i.p.): +
drop of eyelids (BALB/c mice; female mice, at MTD i.p.): +
hyper/hypoventilation (BALB/c mice; female mice, at MTD i.p.): ++
tremor (BALB/c mice; female mice, at MTD i.p.): +
ALP (BALB/c mice; male BALB/c mice): 37 U/L and 38 U/L
ALT (BALB/c mice; male BALB/c mice): 28 U/L and 29 U/L
AST (BALB/c mice; male BALB/c mice): 58 U/L and 59 U/L
Amylase (BALB/c mice; male BALB/c mice): 1757 U/L and 2008 U/L
Creatinine (BALB/c mice; male BALB/c mice): 23 µg/dL and 21 µg/dL
Glucose (BALB/c mice; male BALB/c mice): 185 mg/dL and 175 mg/dL
Urea (BALB/c mice; male BALB/c mice): 31 mg/dL and 33 mg/dL
ataxia (BALB/c mice; male mice, at MTD i.p.): ++ and +
drop of eyelids (BALB/c mice; male mice, at MTD i.p.): +
hyper/hypoventilation (BALB/c mice; male mice, at MTD i.p.): ++
lacrimation (BALB/c mice; male mice, at MTD i.p.): +
prostration (BALB/c mice; male mice, at MTD i.p.): ++
saber-like tail (BALB/c mice; male mice, at MTD i.p.): +
tremor (BALB/c mice; male mice, at MTD i.p.): ++
IC50 fold higher than that for compound 2 (A549 cells): 33.8 fold
MTC (maximum tolerated concentration) (A549 cells): 0.05 mM
IC50 (A549 cells): 1350 ± 120 µM

OCCN1CCN(CC(O)CN2CCN(CCO)CC2)CC1 [Compound 8, 1.3-bis [4-(2-hydroxyethyl)piperazin-1-yl)propan-2-ol tetrahydrochloride]
viability at 48 h, 10 µM [1]: 103 ± 4%
viability at 48 h, 100 µM [1]: 100 ± 18%
viability at 48 h, 10 µM [2]: 104 ± 4%
viability at 48 h, 100 µM [2]: 76 ± 10%
viability at 48 h, 10 µM [3]: 106 ± 8%
viability at 48 h, 100 µM [3]: 81 ± 6%
ALP (BALB/c mice; female BALB/c mice): 121 U/L and 81 U/L
ALT (BALB/c mice; female BALB/c mice): 20 U/L and 23 U/L
AST (BALB/c mice; female BALB/c mice): 78 U/L and 67 U/L
Amylase (BALB/c mice; female BALB/c mice): 1798 U/L and 2455 U/L
Creatinine (BALB/c mice; female BALB/c mice): 79 µg/dL
Glucose (BALB/c mice; female BALB/c mice): 171 mg/dL and 210 mg/dL
Urea (BALB/c mice; female BALB/c mice): 35 mg/dL and 40 mg/dL
excitation (BALB/c mice; female mice, at MTD i.p.): +
tremor (BALB/c mice; female mice, at MTD i.p.): +
ALP (BALB/c mice; male BALB/c mice): 71 U/L and 82 U/L
ALT (BALB/c mice; male BALB/c mice): 26 U/L and 22 U/L
AST (BALB/c mice; male BALB/c mice): 65 U/L and 56 U/L
Amylase (BALB/c mice; male BALB/c mice): 2674 U/L and 2327 U/L
Creatinine (BALB/c mice; male BALB/c mice): 57 µg/dL and 56 µg/dL
Glucose (BALB/c mice; male BALB/c mice): 202 mg/dL and 249 mg/dL
Urea (BALB/c mice; male BALB/c mice): 41 mg/dL and 37 mg/dL
excitation (BALB/c mice; male mice, at MTD i.p.): +
tremor (BALB/c mice; male mice, at MTD i.p.): +
weight at 24 h (%) (BALB/c mice; male mice, at MTD i.p.): -3.8%
weight at 48 h (%) (BALB/c mice; male mice, at MTD i.p.): -2.9%
IC50 fold higher than that for compound 2 (A549 cells): 625 fold
MTC (maximum tolerated concentration) (A549 cells): 6.25 mM
IC50 (A549 cells): > 25000 µM
